Measured values as given in ChEMBL document CHEMBL1201862, “PubChem BioAssay data set” (2004).
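In this assay, cells in 96-well plates receive the compound at five concentrations for 48 hours. Endpoints are linearly interpolated between the surrounding concentrations. GI50 marks 50% less growth.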 Activity calls are given as the source filed them. No stated cut-off is given here; in the data, active = GI50 up to about 1.1 µM and inactive = higher.

Tests used:
Experiment in all cases: inhibition of tumour cell growth, NCI panel, 48 h
HT-29 = system: HT-29
SK-MEL-5 = system: SK-MEL-5
BT-549 = system: BT-549
SNB-75 = system: SNB-75
RXF 393 = system: RXF 393
SK-OV-3 = system: SK-OV-3
UACC-257 = system: UACC-257
SK-MEL-2 = system: SK-MEL-2
TK-10 = system: TK-10
HCT-15 = system: HCT-15
NCI-H522 = system: NCI-H522
A498 = system: A498
OVCAR-3 = system: OVCAR-3
COLO 205 = system: COLO 205
NCI-H23 = system: NCI-H23
CCRF-CEM = system: CCRF-CEM
LOX IMVI = system: LOX IMVI
HOP-92 = system: HOP-92
SW-620 = system: SW-620
HL-60 = system: HL-60

| Structure (SMILES) | GI50 (HT-29) | GI50 (SK-MEL-5) | GI50 (BT-549) | GI50 (SNB-75) | GI50 (RXF 393) | GI50 (SK-OV-3) | GI50 (UACC-257) | GI50 (SK-MEL-2) | GI50 (TK-10) | GI50 (HCT-15) [µM] | GI50 (NCI-H522) | GI50 (A498) | GI50 (OVCAR-3) | GI50 (COLO 205) | GI50 (NCI-H23) | GI50 (CCRF-CEM) | GI50 (LOX IMVI) | GI50 (HOP-92) | GI50 (SW-620) | GI50 (HL-60) |
| --- | --- | --- | --- | --- | --- | --- | --- | --- | --- | --- | --- | --- | --- | --- | --- | --- | --- | --- | --- | --- |
| O=C(Cc1ccccc1)N/N=C1\C(=O)Nc2ccccc21 | > 100 µM (inactive) | 95.9 µM (inactive) | > 100 µM (inactive) | 37.2 µM (inactive) | > 100 µM (inactive) | > 100 µM (inactive) | > 100 µM (inactive) | > 100 µM (inactive) | > 100 µM (inactive) | 62.8 | 48.1 µM (inactive) | 0.229 µM (active) | > 100 µM (inactive) | > 100 µM (inactive) | 95.5 µM (inactive) | > 100 µM (inactive) |  |  |  |  |
| O=C(CN1C(=O)CC(c2ccccc2)(c2ccccc2)C1=O)N1CCN(CCO)CC1 | > 100 µM (inactive) | > 100 µM (inactive) | > 100 µM (inactive) | > 100 µM (inactive) | > 100 µM (inactive) | > 100 µM (inactive) | > 100 µM (inactive) | > 100 µM (inactive) | > 100 µM (inactive) | > 100 | > 100 µM (inactive) | > 100 µM (inactive) | > 100 µM (inactive) | > 100 µM (inactive) | > 100 µM (inactive) | > 100 µM (inactive) | > 100 µM (inactive) | > 100 µM (inactive) | > 100 µM (inactive) |  |
| COc1cccc2c1CCc1c(-c3ccc(F)cc3)cc(-c3ccc4ccccc4n3)nc1-2 | > 100 µM (inactive) | > 100 µM (inactive) | > 100 µM (inactive) | > 100 µM (inactive) | > 100 µM (inactive) | > 100 µM (inactive) | > 100 µM (inactive) | > 100 µM (inactive) | > 100 µM (inactive) | > 100 | > 100 µM (inactive) | > 100 µM (inactive) | > 100 µM (inactive) | > 100 µM (inactive) | > 100 µM (inactive) | > 100 µM (inactive) | > 100 µM (inactive) | > 100 µM (inactive) | > 100 µM (inactive) |  |
| N#C[C@H](c1nc2ccccc2s1)c1nc2ccccc2nc1Cl | > 100 µM (inactive) | > 100 µM (inactive) | 4.79 µM (inactive) | > 100 µM (inactive) | 13.4 µM (inactive) | 23.6 µM (inactive) | 14.7 µM (inactive) | 33.7 µM (inactive) |  | 4.04 | 57.3 µM (inactive) | > 100 µM (inactive) | 17.2 µM (inactive) | > 100 µM (inactive) | 15.3 µM (inactive) | > 100 µM (inactive) |  | 19.1 µM (inactive) | > 100 µM (inactive) | > 100 µM (inactive) |
| CC(C)C(/C=C/c1ccc(Cl)cc1)=N\NC(=S)NN | 23.3 µM (inactive) | 33 µM (inactive) | 23.1 µM (inactive) | 22.9 µM (inactive) | 15 µM (inactive) | 33.7 µM (inactive) | 22.5 µM (inactive) | 7.03 µM (inactive) | 8.87 µM (inactive) | 5.98 | 6.58 µM (inactive) | 23.8 µM (inactive) | 20.1 µM (inactive) | 24.2 µM (inactive) | 20 µM (inactive) | 2.68 µM (inactive) | 7.76 µM (inactive) |  | 14.1 µM (inactive) | 4.99 µM (inactive) |
| O=C(/C=C/c1cc(F)ccc1F)OCCc1ccccc1 | 43 µM (inactive) | 29.2 µM (inactive) | > 100 µM (inactive) | 83.6 µM (inactive) | 91.6 µM (inactive) |  | > 100 µM (inactive) | > 100 µM (inactive) | > 100 µM (inactive) | 35.6 | > 100 µM (inactive) | > 100 µM (inactive) |  | > 100 µM (inactive) | > 100 µM (inactive) | 38.3 µM (inactive) |  | 40.6 µM (inactive) | > 100 µM (inactive) | 16.4 µM (inactive) |
| CCOC(=O)N1[C@@H]2CCC[C@@H]2C(=O)[C@@H]2CCC[C@@H]21 | > 100 µM (inactive) | > 100 µM (inactive) | > 100 µM (inactive) | > 100 µM (inactive) | > 100 µM (inactive) | > 100 µM (inactive) | > 100 µM (inactive) | > 100 µM (inactive) |  | > 100 |  | > 100 µM (inactive) | > 100 µM (inactive) | > 100 µM (inactive) | > 100 µM (inactive) | > 100 µM (inactive) | > 100 µM (inactive) | > 100 µM (inactive) | > 100 µM (inactive) | > 100 µM (inactive) |
| O=C(Nc1ccc(Cl)cc1)c1cc(S(=O)(=O)Nc2nnc3c(Cl)cc(C(F)(F)F)cn23)c(S)cc1Cl | 51.9 µM (inactive) | 96.4 µM (inactive) | > 100 µM (inactive) |  | > 100 µM (inactive) | 41.9 µM (inactive) | > 100 µM (inactive) | 15 µM (inactive) | > 100 µM (inactive) | > 100 | 80 µM (inactive) | 28.7 µM (inactive) | > 100 µM (inactive) | > 100 µM (inactive) | 59.7 µM (inactive) | > 100 µM (inactive) |  | > 100 µM (inactive) |  | > 100 µM (inactive) |
| COC(=O)C1=C(C(=O)OC)C(C(=O)c2ccccc2)N2N=C(c3ccc(Cl)cc3)C=CC12 (stereo unspecified) | 9.59 µM (inactive) | 9.23 µM (inactive) | 2.09 µM (inactive) |  | 4.15 µM (inactive) | > 100 µM (inactive) | > 100 µM (inactive) | > 100 µM (inactive) | 2.85 µM (inactive) | 9.62 | 5.07 µM (inactive) | > 100 µM (inactive) | > 100 µM (inactive) | > 100 µM (inactive) | 26.1 µM (inactive) | 13.6 µM (inactive) | 18.7 µM (inactive) | > 100 µM (inactive) | > 100 µM (inactive) | 3.85 µM (inactive) |
| CCCn1cnc2c(/N=N/O)ncnc21 | > 100 µM (inactive) | > 100 µM (inactive) | > 100 µM (inactive) | > 100 µM (inactive) | > 100 µM (inactive) |  |  |  | > 100 µM (inactive) | > 100 | > 100 µM (inactive) | > 100 µM (inactive) | > 100 µM (inactive) | > 100 µM (inactive) | > 100 µM (inactive) |  |  | > 100 µM (inactive) | > 100 µM (inactive) | > 100 µM (inactive) |
| CC1(C)[C@@H]2C[C@H]1C(Cc1ccc(C[C@H]3c4cc(-c5ccccn5)ncc4[C@H]4C[C@@H]3C4(C)C)cc1)c1cc(-c3ccccn3)ncc12 (stereo partly specified) | 1.44 µM (inactive) | 0.619 µM (active) | 3.33 µM (inactive) | 59.8 µM (inactive) | 3.58 µM (inactive) | 7.83 µM (inactive) | 2.63 µM (inactive) | 7.38 µM (inactive) | 0.841 µM (active) | 2.9 | 7.14 µM (inactive) | 2.36 µM (inactive) | 0.679 µM (active) | 1.41 µM (inactive) | 2.68 µM (inactive) | 0.619 µM (active) | 0.843 µM (active) |  | 3.46 µM (inactive) | 0.518 µM (active) |
